Reference: patent US20180318279A1 (priority 2015, published 2018)

Assays:
[1] = Skin permeation with human abdominal cadaver skin and absorption estimates drawn from it; settings: assuming 3.8 fold increase in drug delivery
[2] = in vivo; cited from earlier work
[3] = system: injured hind paw; settings: rat, in vivo; cited from earlier work

In the case of `CN(C)C(=O)C(CCN1CCC(O)(c2ccc(Cl)cc2)CC1)(c1ccccc1)c1ccccc1` [loperamide, 4-[4-(4-Chlorophenyl)-4-hydroxypiperidin-1-yl]-N,N-dimethyl-2,2-diphenylbutanamide], the “estimated increased penetration with damaged stratum corneum” value [1] is given as 0.057 mg, the “half-life, rapid phase one” value [2] is given as 2.3 h and the “half-life, slow phase two” value [2] is given as 23 h. The antinociception [3] was “rapid dose-dependent antinociception”.

In the case of `CN1CC[C@]23c4c5ccc(O)c4O[C@H]2[C@@H](O)C=C[C@H]3[C@H]1C5` [morphine], the “systemic effects following topical application” value [3] is given as “revealed systemic effects”.
